Results: paper PMC5654082 (Malaria Journal, 2017)
Structures can show the parent of a compound that is named as a salt.

How the values were obtained:
MATE1 = target: T1, MATE1 (Homo sapiens, UniProt Q96FL8); assay: MATE1-mediated uptake in transduced HEK293 cells; format: cell-based; set-up: host or cells: HEK293, baculovirus transduction (CMV promoter), transient; details: 100 µM, 5 min
T1 sequence (Q96FL8 1-570): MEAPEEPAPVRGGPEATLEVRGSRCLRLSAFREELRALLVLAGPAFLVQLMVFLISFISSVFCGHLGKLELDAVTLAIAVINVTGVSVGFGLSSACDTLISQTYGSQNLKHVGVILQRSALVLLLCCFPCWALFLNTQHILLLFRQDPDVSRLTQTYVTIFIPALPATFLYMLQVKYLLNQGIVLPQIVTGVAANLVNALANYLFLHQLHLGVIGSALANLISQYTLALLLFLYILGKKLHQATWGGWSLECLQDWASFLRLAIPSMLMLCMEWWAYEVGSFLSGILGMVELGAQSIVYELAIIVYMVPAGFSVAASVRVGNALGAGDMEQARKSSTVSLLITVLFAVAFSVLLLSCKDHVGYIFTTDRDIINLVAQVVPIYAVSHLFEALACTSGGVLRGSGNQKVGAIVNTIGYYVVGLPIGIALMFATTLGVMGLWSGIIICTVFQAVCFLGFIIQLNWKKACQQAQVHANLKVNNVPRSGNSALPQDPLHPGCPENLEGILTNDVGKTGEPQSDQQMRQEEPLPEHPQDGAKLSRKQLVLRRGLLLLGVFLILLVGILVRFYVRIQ
Protocol: (§1) HEK293 cells were modified to transiently express (a combination of) human OCT1, OCT2, MATE1, MATE2-K, or eYFP. Briefly, cDNA of the respective genes was cloned downstream of a CMV promoter into a baculovirus, of which passage three was used to transduce HEK293 cells. These cells were seeded in poly-D-lysine coated 24- or 96-wells plates and grown in a 37 °C incubator at 5% CO2. Growth was initiated at ~ 25% confluency using 375 or 125 μL cell and complete medium (DMEM + GlutaMAX™-I supplemented with 10% fetal bovine serum) suspension per well, respectively. […]
(§2) Import and export of PG and cycloguanil (CG) was assessed by single and double transduced HEK293 cells. […] Following the same procedure as for the cellular import assay described above, the import of 100 µM PG and CG was measured after 5 min incubation and data was plotted as mean pmol/mg/min ± SEM. […] Significant reduction in uptake (i.e. export by MATEs) was determined using ln transformation and a one-way repeated measures ANOVA with Dunnet’s post test.
(§3) Anti-malarial concentration in the cell lysates was quantified using an LC–MS/MS system consisting of a UPLC, a binary solvent manager, a vacuum degasser and an autosampler, coupled to a Xevo TQ-S micro triple quadrupole mass spectrometer. […] The peak area of the most abundant product ion was used for quantification.

MATE2-K = MATE2-K (Homo sapiens, UniProt Q86VL8); assay: MATE2-K-mediated uptake in transduced HEK293 cells; format: cell-based; set-up: host or cells: HEK293, baculovirus transduction (CMV promoter), transient; details: 100 µM, 5 min
MATE2-K, sequence (Q86VL8 1-566 isoform Q86VL8-3): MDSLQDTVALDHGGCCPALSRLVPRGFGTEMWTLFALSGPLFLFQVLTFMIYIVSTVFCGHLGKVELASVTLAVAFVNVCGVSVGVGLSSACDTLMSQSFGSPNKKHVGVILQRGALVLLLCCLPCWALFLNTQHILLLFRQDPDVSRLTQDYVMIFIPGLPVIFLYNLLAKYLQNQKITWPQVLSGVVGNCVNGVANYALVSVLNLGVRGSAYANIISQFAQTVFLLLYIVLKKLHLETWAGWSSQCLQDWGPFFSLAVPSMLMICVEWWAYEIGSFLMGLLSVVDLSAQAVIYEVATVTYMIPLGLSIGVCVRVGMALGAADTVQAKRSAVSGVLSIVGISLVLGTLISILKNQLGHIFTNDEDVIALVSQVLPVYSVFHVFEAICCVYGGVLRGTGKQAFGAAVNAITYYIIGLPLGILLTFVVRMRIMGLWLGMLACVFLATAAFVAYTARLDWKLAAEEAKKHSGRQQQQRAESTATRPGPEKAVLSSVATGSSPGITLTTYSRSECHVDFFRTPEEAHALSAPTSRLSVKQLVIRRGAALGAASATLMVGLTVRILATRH
Protocol: as §1, §2, §3

Structure (SMILES) | Uptake by MATE1 (MATE1) | Uptake by MATE2-K (MATE2-K)
CC1(C)N=C(N)N=C(N)N1c1ccc(Cl)cc1 [Cycloguanil] | 40 ± 9 pmol/mg/min | 56 ± 15 pmol/mg/min
[H]/N=C(\N/C(=N/[H])Nc1ccc(Cl)cc1)NC(C)C [Proguanil, proguanil hydrochloride] | 430 ± 110 pmol/mg/min | 360 ± 90 pmol/mg/min
